Assays:
Format in all cases: physicochemical
[1] = Drug release from eroding paraffin matrix tablet and immediate release hard gelatin capsule, USP II apparatus; details: 20 mg drug, pH 6.8, +37° C., paddle 75 rpm, FIG. 3
Method: (§1) In the following Examples 1 to 3, drug release from various types of tablets was determined in pH 6.8, +37° C., by use of an USP II apparatus at a paddle stirring rate of 75 rpm. All tablet formulations were manufactured by conventional techniques and, for each example, in an identical manner except for the drug constituent.

[2] = Transport over a diffusion controlling polymeric membrane, two-compartment cell; details: pH 6.8, +37° C., steady state, FIG. 4
Method: The release rate was studied at different initial concentrations of the active drug. The solutions (pH 6.8) in the chambers were well stirred and thermostated at +37° C. From the cumulative amount released versus time, the release rates (amount released/time) were determined as the slopes of the linear parts of the curves obtained at steady state. No accumulation in the membrane was found of any of the drugs. The results are presented in FIG. 4 as the release rates versus the concentrations used in the experiments.

[3] = Drug release from non-eroding high molecular weight xanthane matrix tablet, USP II apparatus; details: non-eroding matrix of xanthane (195 mg), 5 mg drug; pH 6.8, +37° C., paddle 75 rpm; FIG. 2
Method: as §1

[4] = Drug release and tablet erosion, eroding polyethyleneoxide (PEO) matrix tablet, USP II apparatus; details: eroding matrix of PEO 8,000,000, 10 mg drug; pH 6.8, +37° C., paddle 75 rpm; FIG. 1
Method: as §1, with “constituent. […] Tablet erosion was determined by weighing after removal of the tablets from the dissolution apparatus and drying to constant weight.” for “constituent.”

[5] = Water solubility

Structure (SMILES)	drug release from sustained release tablet (comparison) [1]	release rate over membrane versus concentration in donor chamber ([2]; different initial concentrations)	release rate over membrane (comparison) [2]	drug release from sustained release tablet (comparison) [3]	drug release compared with tablet erosion [4]	drug release from sustained release tablet (comparison) [4]	water solubility [5] [mg/mL]	solubility ([5]; water) [mg/mL]
CC(C)n1c(/C=C/[C@@H](O)C[C@@H](O)CC(=O)O)c(-c2ccc(F)cc2)c2ccccc21 (relative stereo) [fluvastatin, R*,S*-(E)-(±)-7-[3-(4-fluorophenyl)-1-(1-methyl-ethyl)-1H-indol-2-yl]-3,5-dihydroxy-6-heptenoic acid]	slower than the release of diclofenac	independent of the concentration of fluvastatin in the donor compartment	much slower compared to diclofenac	slower than the release of both diclofenac and methylparaben	almost identical	slower than the release of methylparaben	–	–
CC(C)n1c(/C=C/C(O)CC(O)CC(=O)O)c(-c2ccc(F)cc2)c2ccccc21 (stereo not drawn) [fluvastatin sodium]	–	–	–	–	–	–	> 50	> 50
COC(=O)c1ccc(O)cc1 [methylparaben, methyl p-hydroxybenzoate]	–	–	–	–	faster than the tablet erosion	–	–	–

Reference: patent US20070031493A1, “Pharmaceutical compositions” (priority 1996, published 2007)
